The record followed here is ChEMBL document CHEMBL1201862, “PubChem BioAssay data set” (2004).

Common to all, as to assay: NCI anticancer screen, dose series, 48 h
Assay [1] relates to CAKI-1.
The test system of assay [2] is CCRF-CEM.
For assay [3], the system named is 786-0.
In assay [4] the test system is MOLT-4.
Assay [5] concerns UACC-62.
For assay [6], the system named is U-251.
Assay [7] has as its system T47D.
Assay [8] has as its system SF-539.
For assay [9], the system named is A549.
Assay [10] deals with KM12.
Assay [11] concerns OVCAR-5.
Assay [12] relates to UO-31.
The test system of assay [13] is SK-OV-3.
Assay [14] has as its system SNB-75.
The test system of assay [15] is Hs-578T.
Assay [16] relates to HT-29.
Assay [17] deals with NCI-H226.
Assay [18] deals with DU-145.
For assay [19], the system named is SNB-19.
Assay [20] has as its system SK-MEL-5.

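Results reflect a 48-hour exposure of cells in 96-well plates to compound at five concentrations. GI50: concentration for 50% inhibition of growth.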 Calls of active or inactive are those of the source. Rule as the data show it: active = GI50 up to about 1.1 µM and inactive = higher.

Turning to `CN(C)c1nc(-c2ccccc2)c(C(=O)c2c[nH]c3ccccc23)s1`, the GI50 in [1] was 9.4 µM (inactive); in [2], 5.92 µM (inactive); in assay [3] it was 8.61 µM (inactive); in assay [4], 6.62 µM (inactive); in assay [5], 6.05 µM (inactive); in assay [6] it was 5.66 µM (inactive). Further, the GI50 in [7] is > 43.7 µM (inactive); in [8], 10.7 µM (inactive); in [9], 6.62 µM (inactive); in assay [10], 4.2 µM (inactive); in assay [11], > 24.3 µM (inactive); in assay [12] it was 11.2 µM (inactive). The GI50 is 7.6 µM (inactive) in [13]; 2.67 µM (inactive) in [14]; 4.75 µM (inactive) in [15]; 3.51 µM (inactive) in assay [16]; > 25.7 µM (inactive) in [17]; 34.2 µM (inactive) in assay [18]. Further, the results for the GI50 in assay [19] and in assay [20] were 14.8 µM (inactive) and 8.57 µM (inactive), respectively.

In the case of `O=C(O)Cc1ccc(Nc2nc3ccccc3nc2C(=O)O)cc1`, the GI50 in [1], in assay [2], in [3], in [4], in [5] and in [6] was > 100 µM (inactive) each time. For the same compound, the GI50 in assay [7], in assay [8], in [9], in assay [10], in assay [11] and in assay [12] was > 100 µM (inactive) throughout. For the same compound, the GI50 in assay [13], in assay [14], in assay [15], in assay [16], in assay [17] and in assay [18] was > 100 µM (inactive) each time. Moreover, the GI50 in assay [19] and in assay [20] was > 100 µM (inactive) each time.

Take `C=C1C(=O)OC2C1C(OC(=O)/C(C)=C/C)CC(O)(CCl)C1C(O)C=C(C)C21O` (stereo not given): the GI50 in [1] is 4.14 µM (inactive); in assay [2], 2.84 µM (inactive); in [3], 4.88 µM (inactive); in [4], 3.92 µM (inactive); in assay [5], 12.5 µM (inactive); in assay [6], 27.5 µM (inactive). Moreover, the GI50 in [7] is 11.9 µM (inactive); in assay [8], 20.6 µM (inactive); in assay [9], 28.7 µM (inactive); in [10] it was 20.5 µM (inactive); in [11] it was 16.7 µM (inactive); in assay [12], 15 µM (inactive). Further, the GI50 in [13] was 47.9 µM (inactive); in [14] it was 27.5 µM (inactive); in [15], > 62.1 µM (inactive); in assay [16], 15.7 µM (inactive); in assay [17], 19.1 µM (inactive); in [18], 16.5 µM (inactive). Further, the GI50 in [19] is > 43.8 µM (inactive); in assay [20], 11 µM (inactive).

As to `N=C(N)NS(=O)(=O)c1ccc(NCc2c3ccccc3nc3ccccc23)cc1`, the GI50 is 4.34 µM (inactive) in assay [1]; 0.0782 µM (active) in [2]; 1.07 µM (active) in assay [3]; 0.0308 µM (active) in assay [4]; 1.1 µM (active) in assay [5]; 0.354 µM (active) in [6]. Besides, the GI50 was 1.16 µM (inactive) in assay [7]; 0.483 µM (active) in [8]; 0.338 µM (active) in assay [9]; 6.24 µM (inactive) in assay [10]; 33.3 µM (inactive) in [11]; 18.6 µM (inactive) in [12]. The GI50 in [13] was 2.73 µM (inactive); in assay [14], 0.608 µM (active); in assay [15], 1.5 µM (inactive); in [16] it was 33.3 µM (inactive); in assay [17] it was 0.421 µM (active); in assay [18] it was 1.83 µM (inactive). Further, the GI50 was 0.711 µM (active) in assay [19] and 2.62 µM (inactive) in assay [20].

On to `O=[N+]([O-])c1ccc(Sc2c3ccccc3nc3ccccc23)cn1`, for which the GI50 is 5.61 µM (inactive) in assay [1]; 2.39 µM (inactive) in assay [2]; 2.59 µM (inactive) in assay [3]; 2.19 µM (inactive) in [4]; 18.7 µM (inactive) in assay [5]; > 44.2 µM (inactive) in [6]. Besides, the GI50 in [7] is 4.92 µM (inactive); in [8] it was 8.77 µM (inactive); in assay [9], > 100 µM (inactive); in assay [10] it was 33.1 µM (inactive); in assay [11] it was > 62.4 µM (inactive); in assay [12], 15.3 µM (inactive). In addition, the GI50 in assay [13] is > 53.8 µM (inactive); in assay [14] it was 24.9 µM (inactive); in [15], 18 µM (inactive); in [16], 9.02 µM (inactive); in assay [17], > 100 µM (inactive); in assay [18], 13.5 µM (inactive). The GI50 is 24.5 µM (inactive) in assay [19] and 35.1 µM (inactive) in assay [20].

Consider `CN(C)Cc1ccc(C(C)(C)C)cc1-c1cc(C(C)(C)C)ccc1CN(C)C`, for which the GI50 in assay [1] is > 100 µM (inactive); in [2], 42.7 µM (inactive); in assay [3], 70.5 µM (inactive); in assay [4] it was 40.2 µM (inactive); in [5], > 100 µM (inactive); in assay [6], 42.7 µM (inactive). Also, the GI50 is 48.2 µM (inactive) in [7]; > 100 µM (inactive) in [8]; 93.5 µM (inactive) in [9]; 34.3 µM (inactive) in [10]; > 100 µM (inactive) in assay [11]; 42.7 µM (inactive) in assay [12]. Moreover, the GI50 in [13] was > 100 µM (inactive); in [14] it was 88.1 µM (inactive); in assay [15], > 100 µM (inactive); in assay [16], 33 µM (inactive); in [17] it was > 100 µM (inactive); in [18] it was > 100 µM (inactive). Moreover, the GI50 in assay [19] was > 100 µM (inactive); in assay [20] it was 32.4 µM (inactive).

`CC(C)OC(=O)OCSc1ccccc1/N=C/c1cccc([N+](=O)[O-])c1`: the GI50 in [1], in assay [2], in [3], in assay [4], in assay [5] and in assay [6] was > 10 µM (inactive) throughout. Further, the GI50 in assay [7], in [8], in assay [9], in assay [10], in assay [11] and in assay [12] was > 10 µM (inactive) in each case. The GI50 in assay [13], in [14], in assay [15], in assay [16], in assay [17] and in assay [18] was > 10 µM (inactive) in each case. Besides, the GI50 in [19] and in [20] was > 10 µM (inactive) throughout.
